Reference: patent US20250090437A1, “COSMETIC COMPOUNDING AGENT, COSMETIC AND PRODUCTION METHOD THEREOF” (MIYOSHI OIL & FAT CO., LTD., priority 2019, published 2025)

What was measured:
[1] = Sensory evaluation on healthy hair after using shampoo agent containing organic ammonium salt; parameters: species or system human; details: shampoo agent containing 3.0% by mass of the compound; treated 10 times
Procedure: Next, the mixture was cooled to a temperature of 30° C. or lower, and a purified water of an evaporated amount was then added thereto so that the whole hair treatment composition would be 100% by mass, followed by uniformly mixing them so as to obtain a hair treatment composition(s). The pH level of the hair treatment composition was adjusted to pH 6.0 by adding a citric acid or sodium hydroxide.
About 5 g of the healthy hair was taken and dipped into 350 ml of a seven-time dilute aqueous solution of each of the abovementioned hair treatment compositions (shampoo agents) at 35 to 40° C. so as to be washed. The healthy hair was then subjected to a rinsing treatment five times using 500 ml of a warm water of 35 to 40° C., followed by drying the same at 80° C., and then performing air drying at 25° C. Such series of treatment involving hair washing, rinsing and drying was repeated 10 times to then evaluate a cohesiveness of the hair, a moist feeling of the hair, a gloss of the hair, a surface smoothness of the hair and a non-stickiness on the surface of the hair, after performing air drying.

[2] = Sensory evaluation on healthy hair after using conditioner containing organic ammonium salt; parameters: species or system human; details: conditioner containing 3.0% by mass of the compound
Procedure: Here, 4.5% by mass of a stearyl alcohol (KALCOL 8688 by Kao Corporation), 2.0% by mass of a behenyl alcohol (KALCOL 220-80 by Kao Corporation) and 0.5% by mass of a phenoxyethanol (Hisolve EPH by TOHO Chemical Industry Co., Ltd.) were mixed together and heated to 75° C. to obtain a liquid A. Further, 3.0% by mass of a behentrimonium chloride (CATINAL DC-80 by TOHO Chemical Industry Co., Ltd.), 5.0% by mass of dipropylene glycol and 3.0% by mass of each of the compounds B11, B23, B26, B27 and B28 (content in terms of anhydride in the cases of the compounds B11 and B23) were added together, followed by adding a purified water thereto, and then melting them at 80° C., thus obtaining a liquid B. The liquid B was then gradually added to the liquid A, and stirring was performed at 75° C. for 20 min. Next, the mixture was cooled to a temperature of 40° C. or lower, and a purified water of an evaporated amount was then added thereto so that the whole hair treatment composition would be 100% by mass, followed by uniformly mixing them so as to obtain a hair treatment composition(s).
About 5 g of the healthy hair was dipped into and kept immersed in 150 g of a seven-time dilute aqueous solution of each of the abovementioned hair treatment compositions (conditioners) at 40° C. for 30 min. […] After air drying, a combing capability, cohesiveness and non-stickiness of the hair were evaluated.

keratin [3] = assay: Keratin adherability; details: 1 g keratin in 2 g of 50 wt % aqueous solution, 25° C., 24 hours
Procedure: Here, 1 g of a powdery keratin (by Tokyo Chemical Industry Co., Ltd.) (pre-test keratin) was added to 2 g of a 50 wt % aqueous solution of each of the compounds B11, B23, B26 and B27, followed by performing stirring at 25° C. for 24 hours. After stirring, filtration was performed, and a powdery keratin obtained was then dried so as to obtain a keratin that had been treated (post-test keratin).
A rate of compound adhesion to keratin was calculated with the following formula.

keratin [4] = assay: Stabilization effect of hair treatment agent on keratin (IR, 130° C., seven days); details: treated keratin after 130° C. for seven days
Procedure: Here, 0.3 g of the keratin that had been treated in 4-1 was placed into a thermostatic device of 130° C. and left to stand still therein for seven days. After seven days, an IR spectrum of the keratin obtained was measured; by measuring an absorption derived from the α-helix secondary structure of amide, a stabilization effect of the hair treatment agent on the structure of keratin was evaluated.
Next, IR measurement was carried out after performing the heating test at 130° C. to obtain peaks derived from each amide and an intensity ratio(s) thereof to a reference peak (reference peak (derived from C—N) 1086 cm^−1, peak 1654 cm^−1 derived from the α-helix secondary structure of amide). The intensity ratio (X) was evaluated as “intensity of reference peak:intensity of peak derived from amide=1:X,” by reading the absorption intensity of the reference peak and the intensity of the peak derived from amide.

[5] = Water retention property test 1; format: physicochemical; details: 80 wt % aqueous solution
Procedure: A moisture rate after 24 hours was again measured (post-test moisture rate: B), followed by using the formula below to calculate a rate of reduction in moisture so as to evaluate the water retention property. • Pre-test moisture rate: A (%) • Post-test moisture rate: B (%)

[6] = Water retention property test 3 (long term); format: physicochemical; details: 80 wt % aqueous solution, 40° C. and 25% RH
Procedure: In a water retention property test 3, an 80 wt % aqueous solution of each of the compounds C8, C11, C62, C63 and C64 was prepared, followed by using a Karl Fischer moisture meter to confirm that a moisture rate was 20.0 wt %. Next, 1.0 g of each of these samples was added to a screw tube, and this screw tube, while remaining unsealed, was then left to stand still in a thermo-hygrostat set to 40° C. and 25% RH. […] In addition, the water retention property was evaluated by calculating an amount of moisture reduction per hour (mg/h) based on each amount of moisture reduction (mg).

[7] = Permeability to skin (horny layer tape stripping method); format: in vivo; details: extraction liquid, an hour after application to the arm, HPLC
Procedure: Skin permeability was evaluated by a horny layer tape stripping method. […] A sample was applied to the arm and then left thereon for an hour before performing tape stripping on the horn by eight layers. An adhered substance on this tape was then extracted with an ion-exchange water over the course of 10 min, followed by filtrating an extraction liquid thus obtained with a 0.2 μm filter, and then quantifying, via HPLC, the amount of each of the compounds C20, C64 and C97 in each extraction liquid filtrated.

[8] = Surface resistance measurement of organic ammonium salt; details: 0.7 g applied to polyurethane artificial leather; liquid state; uncoated greater than 4×10^11Ω
[9] = unsealed, 24 hours at 40° C. and 25% RH

Question: With `OCC(O)CO` [Compound A52, glycerin, reference compound] as the compound, how does the “Sensory evaluation of healthy hair after shampoo agent (cohesiveness, moist feeling, gloss, smoothness, non-stickiness)” value [1] read?
Answer: Its value is “inferior in general”.

Question: What about the “Combing capability, cohesiveness and non-stickiness of healthy hair after conditioner” value [2] of the same compound?
Answer: The value was “slightly inferior”.

Question: What about the “Rate of compound adhesion to keratin” value (keratin [3]) of the same compound?
Answer: The value was 11.0%.

Question: And the “α-helix secondary structure of keratin after heating” value (keratin [4])?
Answer: Its value is “maintained”.

Question: What about the Pre-test moisture rate ([5]; before the test (Karl Fischer)) of the same compound?
Answer: The Pre-test moisture rate was 20.0%.

Question: And the Post-test moisture rate [5, 9]?
Answer: Its Post-test moisture rate is 18.0%.

Question: And the “Rate of reduction in moisture” value [5, 9]?
Answer: Its value is 10.0%.

Question: What about the “Amount of moisture reduction in 120 to 144 h” value ([6]; unsealed) of the same compound?
Answer: Its value is 29.4 mg.

Question: What about the “Amount of moisture reduction in 144 to 168 h” value ([6]; unsealed) of the same compound?
Answer: Its value is 30.0 mg.

Question: And the “Amount of moisture reduction in 168 to 192 h” value ([6]; unsealed)?
Answer: The value was 13.1 mg.

Question: And the “Moisture rate after 144 h” value ([6]; unsealed)?
Answer: The value was 5.4%.

Question: And the “Moisture rate after 168 h” value ([6]; unsealed)?
Answer: Its value is 1.9%.

Question: And the “Moisture rate after 192 h” value ([6]; unsealed)?
Answer: The value was 0.3%.

Question: And the “Amount of moisture reduction per hour” value ([6]; 120~144 h)?
Answer: Its value is 1.2 mg/h.

Question: What about the “Amount of moisture reduction per hour” value ([6]; 144~168 h) of the same compound?
Answer: Its value is 1.3 mg/h.

Question: And the “Amount of moisture reduction per hour” value ([6]; 168~192 h)?
Answer: Its value is 0.5 mg/h.

Question: What about the Compound concentration ([7]; Tape stripping layer 1) of the same compound?
Answer: The Compound concentration was 0.030 ml/L.

Question: What about the Compound concentration ([7]; Tape stripping layer 2) of the same compound?
Answer: Its Compound concentration is 0.014 ml/L.

Question: What about the Compound concentration ([7]; Tape stripping layer 3) of the same compound?
Answer: The Compound concentration was 0.009 ml/L.

Question: What about the Compound concentration ([7]; Tape stripping layer 4) of the same compound?
Answer: Its Compound concentration is 0.009 ml/L.

Question: And the Compound concentration ([7]; Tape stripping layer 5)?
Answer: The Compound concentration was 0.008 ml/L.

Question: And the Compound concentration ([7]; Tape stripping layer 6)?
Answer: Its Compound concentration is 0.006 ml/L.

Question: And the Compound concentration ([7]; Tape stripping layer 7)?
Answer: The Compound concentration was 0.006 ml/L.

Question: And the Compound concentration ([7]; Tape stripping layer 8)?
Answer: The Compound concentration was 0.006 ml/L.

Question: And the Surface resistance value [8]?
Answer: The Surface resistance value was 5×10^8 Ω.
